Data: publication PMC3884847 (Journal of Medicinal Chemistry, 2013)
In brackets after ≈: the same amount, converted by molar mass. Several values for one entry are separate records, joined by “and”; a condition that tells them apart may be missing. Equal values may be shown once. Read-outs that look alike come from different tables or passages of the source.

Legend:
T. cruzi (Tulahuen TcVI) [1] = test system: T. cruzi (Tulahuen TcVI)
T. cruzi (Tulahuen TcVI) [2] = assay: Initial PK/PD efficacy: 10-day once daily oral dosing of T. cruzi infected mice; assay type: in vivo, Swiss mice; details: 20 mg/kg oral once daily for up to 10 days
[3] = human liver microsomes
T. cruzi [4] = details: twice daily treatment for 30 days, acute and chronic models; cited from earlier work
T. cruzi [5] = details: cited from earlier work
in vitro = details: rat, L6 IC50 (cytotoxicity), L6 cells
[6] = test system: T. cruzi (Tulahuen strain (Tc VI) transfected with β-galactosidase), amastigote form; assay: microbe, parasite or virus in culture; details: Trypanosoma cruzi
T. cruzi (Tulahuen TcVI) [7] = details: once daily oral 20 mg/kg for 20 days, cited from earlier work
physchem = details: pH 2
[8] = 20 mg/kg oral once daily 20 days, day 8 = first compound dose
[9] = 20 mg/kg oral once daily 20 days, end after three cycles of immunosuppression
[10] = 20 mg/kg oral once daily 20 days, first day of nontreatment period
[11] = 20 mg/kg oral once daily 20 days, last day of nontreatment period
[12] = 20 mg/kg, PCR of blood, spleen, heart, skeletal muscle, colon
[13] = 5 mg/kg oral once daily 20 days
[14] = 10 mg/kg oral once daily 20 days
[15] = 100 mg/kg oral once daily 20 days
[16] = 20 mg/kg oral once daily 20 days

For `O=C(C(c1ccc(Cl)cc1)c1cccnc1)N1CCN(c2ccc(C(F)(F)F)cc2)CC1` (racemic) [(rac)-7, 2-(4-Chlorophenyl)-1-{4-[4-(trifluoromethyl)phenyl]piperazin-1-yl}-2-(pyridin-3-yl)ethanone], the “cure by PCR analyses of organs and blood” value (T. cruzi (Tulahuen TcVI) [1]; 20 mg/kg daily oral) was “no cures were obtained”, the “mouse survival after infection, day 8” value (T. cruzi (Tulahuen TcVI) [1]; [8]) was 5 of 5 and the “mouse survival after infection, day 58” value (T. cruzi (Tulahuen TcVI) [1]; [9]) was 3 of 5. The “mouse survival after infection, day 28” value (T. cruzi (Tulahuen TcVI) [1]; [10]) was 5 of 5, the “mouse survival after infection, day 37” value (T. cruzi (Tulahuen TcVI) [1]; [11]) was 5 out of 5 and 5 of 5 and the “–ve PCR” value (T. cruzi (Tulahuen TcVI) [1]; [12]) was 0 of 3. The “parasites cleared from blood during 10-day dosing?” value (“parasites cleared” below) (T. cruzi (Tulahuen TcVI) [2]) was “yes” and the “predicted human EH” value ([3]; Table 2) was 0.50.

In the case of `O=C([C@H](c1ccc(Cl)cc1)c1cccnc1)N1CCN(c2ccc(C(F)(F)F)cc2)CC1` [(R)-7, 2-(4-Chlorophenyl)-1-{4-[4-(trifluoromethyl)phenyl]piperazin-1-yl}-2-(pyridin-3-yl)ethanone], the “predicted human EH” value ([3]; Table 2) is reported as 0.61.

With `O=C([C@@H](c1ccc(Cl)cc1)c1cccnc1)N1CCN(c2ccc(C(F)(F)F)cc2)CC1` [(S)-7, 2-(4-Chlorophenyl)-1-{4-[4-(trifluoromethyl)phenyl]piperazin-1-yl}-2-(pyridin-3-yl)ethanone] the “cure by PCR analyses of organs and blood” value (T. cruzi (Tulahuen TcVI) [1]; 5 mg/kg daily oral) was “cure had not been achieved”, the “mouse survival after infection, day 8” value (T. cruzi (Tulahuen TcVI) [1]; [13]) was 4 of 4 and the “mouse survival after infection, day 28” value (T. cruzi (Tulahuen TcVI) [1]; [13]) was 4 of 4. The “mouse survival after infection, day 37” value (T. cruzi (Tulahuen TcVI) [1]; [13]) was 4 of 4, the “mouse survival after infection, day 58” value (T. cruzi (Tulahuen TcVI) [1]; [13]) was 3 out of 4 and 3 of 4 and the “–ve PCR” value (T. cruzi (Tulahuen TcVI) [1]; 5 mg/kg, PCR of blood and tissues) was 0 of 3. For the same molecule, the “mouse survival after infection, day 8” value (T. cruzi (Tulahuen TcVI) [1]; [14]) was 4 of 4, the “mouse survival after infection, day 28” value (T. cruzi (Tulahuen TcVI) [1]; [14]) was 4 of 4 and the “mouse survival after infection, day 37” value (T. cruzi (Tulahuen TcVI) [1]; [14]) was 4 of 4. For the same molecule, the “mouse survival after infection, day 58” value (T. cruzi (Tulahuen TcVI) [1]; [14]) was 3 of 4, the “–ve PCR” value (T. cruzi (Tulahuen TcVI) [1]; 10 mg/kg, PCR of blood and tissues) was 2 out of the 3 and 2 of 3 and the “predicted human EH” value ([3]; Table 2) was 0.53.

For `O=C(N[C@@H](Cn1ccnc1)c1ccc(Cl)cc1Cl)c1ccc(-c2nnc(-c3ccccc3)o2)cc1` [VNI], the parasitological cure (T. cruzi [4]) is given as “parasitological cure”.

In the case of `O=C(Cn1ccnc1[N+](=O)[O-])NCc1ccccc1` [benznidazole, reference compound], the “adult patients experiencing serious adverse reactions” value (T. cruzi [5]) is listed as “up to 30%”, the “cure rates, acute stage of the infection” value (T. cruzi [5]; patients) is listed as “up to 60%” and the “parasites in blood during the immunosuppression phase” value (T. cruzi (Tulahuen TcVI) [1]; 100 mg/kg oral) is listed as “re-emergence of parasites in blood”. For the same molecule, the “mouse survival after infection, day 8” value (T. cruzi (Tulahuen TcVI) [1]; [15]) was 5 of 5, the “mouse survival after infection, day 28” value (T. cruzi (Tulahuen TcVI) [1]; [15]) was 4 of 5 and the “mouse survival after infection, day 37” value (T. cruzi (Tulahuen TcVI) [1]; [15]) was 4 of 5. For the same molecule, the “mouse survival after infection, day 58” value (T. cruzi (Tulahuen TcVI) [1]; [15]) was 0 of 5, the IC50 (in vitro) was over 100 µM and the IC50 ([6]; read-out: Tc IC50) was 1500 nM.

In the case of `N#Cc1ccc(C(O)(c2ccc(C(F)(F)F)cc2)c2cccnc2)cc1` (centres unmarked) [compound 2, 4-(hydroxy(pyridin-3-yl)[4-(trifluoromethyl)phenyl]methyl)benzonitrile], the parasitological cure (T. cruzi (Tulahuen TcVI) [7]; three cycles of immunosuppression) is given as “had not achieved a parasitological cure”, the “parasites cleared” value (T. cruzi (Tulahuen TcVI) [2]) is given as “yes” and the IC50 [6] is given as 12 nM.

In the case of `N#Cc1ccc(C(c2cccnc2)N2CCC(NC(=O)c3c(F)cccc3F)CC2)cc1` (centres unmarked) [compound 4], the “parasites cleared” value (T. cruzi (Tulahuen TcVI) [2]) is reported as “no”.

With `Fc1cc(Cl)ccc1C(NC1CCN(c2ccc(C(F)(F)F)cc2)CC1)c1cccnc1` (centres unmarked) [compound 5] the “parasites cleared” value (T. cruzi (Tulahuen TcVI) [2]) was “yes”.

For `FC(F)(F)c1ccc(N(c2cccnc2)C2CCN(c3ccc(C(F)(F)F)cn3)CC2)cc1` [compound 6, N-[4-(Trifluoromethyl)phenyl]-N-(1-[5-(trifluoromethyl)pyridin-2-yl]piperidin-4-yl)pyridin-3-amine], the “mice microscopically parasite free following three cycles of immunosuppression” value (T. cruzi (Tulahuen TcVI) [1]; [16]) was 3 out of 4, the “mice parasite free at the end of dosing” value (T. cruzi (Tulahuen TcVI) [1]; [16]) was 4 out of 5 and the “mouse survival after infection, day 8” value (T. cruzi (Tulahuen TcVI) [1]; [8]) was 5 of 5. The “mouse survival after infection, day 58” value (T. cruzi (Tulahuen TcVI) [1]; [9]) was 3 of 5, the “mouse survival after infection, day 28” value (T. cruzi (Tulahuen TcVI) [1]; [10]) was 4 of 5 and the “mouse survival after infection, day 37” value (T. cruzi (Tulahuen TcVI) [1]; [11]) was 4 of 5. The “–ve PCR” value (T. cruzi (Tulahuen TcVI) [1]; [12]) was 3 of 3, the parasitological cure (T. cruzi (Tulahuen TcVI) [1]; lower doses, 5 and 10 mg/kg, data not shown) was “parasitological cure was not observed” and the “parasites cleared” value (T. cruzi (Tulahuen TcVI) [2]) was “yes”. The “predicted human EH” value ([3]; Table 1) was 0.68.

For `CC(C)(C)CC(=O)N1CCC(N(c2ccc(Cl)cc2)c2cccnc2)CC1` [compound 16], the “predicted human EH” value ([3]; Table 1) was 0.91.

In the case of `Cc1ccccc1CN1CCC(N(c2ccc(C(F)(F)F)cc2)c2cccnc2)CC1` [compound 22], the “predicted human EH” value ([3]; Table 1) is reported as 0.87.

For `N#Cc1ccccc1N1CCC(N(c2ccc(C(F)(F)F)cc2)c2cccnc2)CC1` [compound 25], the “predicted human EH” value ([3]; Table 1) was 0.88.

With `FC(F)(F)c1ccc(N(c2cccnc2)C2CCN(c3ccc(Cl)cc3)CC2)cc1` [compound 27] the “predicted human EH” value ([3]; Table 1) was 0.65.

For `N#Cc1ccc(N(c2cccnc2)C2CCN(c3ccc(C(F)(F)F)cc3)CC2)cc1` [compound 31], the “predicted human EH” value ([3]; Table 1) was 0.69.

For `CS(=O)(=O)c1ccc(N2CCC(N(c3ccc(C#N)cc3)c3cccnc3)CC2)cc1` [compound 33], the “predicted human EH” value ([3]; Table 1) was 0.47.

With `FC(F)(F)c1ccc(N(c2cncnc2)C2CCN(c3ccc(C(F)(F)F)cn3)CC2)cc1` [compound 34] the “predicted human EH” value ([3]; Table 1) was 0.63.

With `N#Cc1ccc(C(C(=O)N2CCN(c3ccc(C(F)(F)F)cc3)CC2)c2cccnc2)cc1` (centres unmarked) [compound 40] the “predicted human EH” value ([3]; Table 2) was 0.70.

In the case of `O=C(C(c1ccc(Cl)cc1)c1cccnc1)N1CCN(c2ccc(C(F)(F)F)nc2)CC1` (centres unmarked) [compound 41], the “predicted human EH” value ([3]; Table 2) is reported as 0.77.

In the case of `N#Cc1ccc(C(C(=O)N2CCN(c3ccc(C(F)(F)F)nc3)CC2)c2cccnc2)cc1` (centres unmarked) [compound 42], the “predicted human EH” value ([3]; Table 2) is reported as 0.56.

For `O=C(C(c1ccc(Cl)cc1)c1cccnc1)N1CCN(c2ccc(C(F)(F)F)cn2)CC1` (centres unmarked) [compound 43], the solubility (physchem) was 25 µg/mL (≈ 54.2 µM) and the “predicted human EH” value ([3]; Table 2) was 0.70.

For `N#Cc1ccc(C(C(=O)N2CCN(c3ccc(C(F)(F)F)cn3)CC2)c2cccnc2)cc1` (centres unmarked) [compound 44], the “predicted human EH” value ([3]; Table 2) was 0.56.

For `CS(=O)(=O)c1ccc(N2CCN(C(=O)C(c3ccc(Cl)cc3)c3cccnc3)CC2)cc1` (centres unmarked) [compound 45], the “predicted human EH” value ([3]; Table 2) was 0.82.

With `CS(=O)(=O)c1ccc(N2CCN(C(=O)C(c3ccc(C#N)cc3)c3cccnc3)CC2)cc1` (centres unmarked) [compound 46] the “predicted human EH” value ([3]; Table 2) was 0.46.

With `N#Cc1ccc(C(c2cccnc2)N2CCC(NC(=O)c3ccccc3)CC2)cc1` (centres unmarked) [compound 47] the “parasites cleared” value (T. cruzi (Tulahuen TcVI) [2]) was “no”.

In the case of `N#Cc1cccc(N2CCC(NC(c3cccnc3)c3ccc(Cl)cc3F)CC2)c1` (centres unmarked) [compound 48], the “parasites cleared” value (T. cruzi (Tulahuen TcVI) [2]) is reported as “no”.

In the case of `Cc1cc(C(=O)NC2CCN(C(c3ccc(C#N)cc3)c3cccnc3)CC2)n(C)n1` (centres unmarked) [compound 50], the “parasites cleared” value (T. cruzi (Tulahuen TcVI) [2]) is reported as “no”.

With `Cc1ncsc1C(=O)N1CCC(NC(c2ccc(C(F)(F)F)cc2)c2cccnc2)CC1` (centres unmarked) [compound 51] the “parasites cleared” value (T. cruzi (Tulahuen TcVI) [2]) was “no”.

In the case of `N#Cc1ccc(C(O)(c2ccc(C(F)(F)F)cc2)c2cccnc2)c(F)c1` (centres unmarked) [compound 52], the “parasites cleared” value (T. cruzi (Tulahuen TcVI) [2]) is reported as “yes” and the IC50 [6] is reported as 2 nM.

For `CC[C@@H]([C@H](C)O)n1ncn(-c2ccc(N3CCN(c4ccc(OC[C@@H]5CO[C@@](Cn6cncn6)(c6ccc(F)cc6F)C5)cc4)CC3)cc2)c1=O` [posaconazole, reference compound], the mice cured (T. cruzi (Tulahuen TcVI) [7]; subchronic mouse model) is given as about 60%, the “parasites cleared” value (T. cruzi (Tulahuen TcVI) [2]) is given as “yes” and the IC50 (in vitro) is given as over 100 µM. For the same molecule, the IC50 ([6]; read-out: Tc IC50) was 0.7 nM.
